Test results as given in patent US7923473B2, “Aromatic compounds and their use in medical applications” (Revotar Biopharmaceuticals AG, priority 2005, dated 2011).

What was measured:
[1] = molecular target: T1, human E-Selectin-IgG-chimera (Homo sapiens, UniProt P16581); test: Flow chamber assay / cell adhesion and rolling under flow conditions, E-selectin; assay type: cell-based; conditions: 125 μM compound; HL-60 cells; flow shear 1 dyne/cm^2; attached cells after 5 minutes continuous flow
Protocol: (§1) To assess the capability of compounds to inhibit cell binding under dynamic conditions resembling the flow in a blood vessel, flow chamber assays addressing/testing binding of HL-60 cells/various cell lines to P-selectin, L-selectin and E-selectin chimeric molecules are performed.
(§2) Cell attachment under flow conditions are determined using a parallel flow chamber system. A 35 mm polystyrene culture dish is coated for 1 hour at room temperature with coating buffer (50 mM tris-(hydroxymethyl)aminomethane buffer (Tris), 150 mM NaCl, 2 mM CaCl2; pH 7.4) containing human E- or P-selectin-IgG chimera at concentrations of 2.5 μg/ml or 10 μg/ml, respectively. After removal of the coating solution non specific binding sites are blocked for an additional hour with 1% BSA in coating buffer at room temperature. After washing with assay buffer (“Roswell Park Memorial Institute 1640” (RPMI 1640)+10 mM HEPES) the dish is fitted into a parallel plate laminar flow chamber (sold from Glycotech, Rockville, Md.) and mounted on an inverted phase-contrast microscope (sold from Olympus, Hamburg, Germany) equipped with a CCD camera (JVC) that is connected to a PC. Employing a peristaltic pump (sold from Ismatec, Wertheim-Mondfeld, Germany) the re-circulating system is equilibrated with assay buffer containing 125 μM compound or vehicle control (DMSO). Cells (1 million/ml) are added to the chamber and allowed to distribute for 2 minutes at a high flow rate. The flow rate is then decreased resulting in a calculated flow shear of 1 dyne/cm^2. Video sequences of 10 low power fields are digitally recorded after 5 minutes continuous flow. The percentage of modulation is calculated from the mean number of cells per field that attached to the coated dish surface in the presence versus absence of compound of […].

[2] = molecular target: T2, human P-Selectin-IgG-chimera (Homo sapiens, UniProt P16109); test: Flow chamber assay / cell adhesion and rolling under flow conditions, P-selectin; assay type: cell-based; conditions: 125 μM compound; HL-60 cells; flow shear 1 dyne/cm^2; attached cells after 5 minutes continuous flow
T2 sequence (P16109 with tags, fused parts or gaps limits assumed): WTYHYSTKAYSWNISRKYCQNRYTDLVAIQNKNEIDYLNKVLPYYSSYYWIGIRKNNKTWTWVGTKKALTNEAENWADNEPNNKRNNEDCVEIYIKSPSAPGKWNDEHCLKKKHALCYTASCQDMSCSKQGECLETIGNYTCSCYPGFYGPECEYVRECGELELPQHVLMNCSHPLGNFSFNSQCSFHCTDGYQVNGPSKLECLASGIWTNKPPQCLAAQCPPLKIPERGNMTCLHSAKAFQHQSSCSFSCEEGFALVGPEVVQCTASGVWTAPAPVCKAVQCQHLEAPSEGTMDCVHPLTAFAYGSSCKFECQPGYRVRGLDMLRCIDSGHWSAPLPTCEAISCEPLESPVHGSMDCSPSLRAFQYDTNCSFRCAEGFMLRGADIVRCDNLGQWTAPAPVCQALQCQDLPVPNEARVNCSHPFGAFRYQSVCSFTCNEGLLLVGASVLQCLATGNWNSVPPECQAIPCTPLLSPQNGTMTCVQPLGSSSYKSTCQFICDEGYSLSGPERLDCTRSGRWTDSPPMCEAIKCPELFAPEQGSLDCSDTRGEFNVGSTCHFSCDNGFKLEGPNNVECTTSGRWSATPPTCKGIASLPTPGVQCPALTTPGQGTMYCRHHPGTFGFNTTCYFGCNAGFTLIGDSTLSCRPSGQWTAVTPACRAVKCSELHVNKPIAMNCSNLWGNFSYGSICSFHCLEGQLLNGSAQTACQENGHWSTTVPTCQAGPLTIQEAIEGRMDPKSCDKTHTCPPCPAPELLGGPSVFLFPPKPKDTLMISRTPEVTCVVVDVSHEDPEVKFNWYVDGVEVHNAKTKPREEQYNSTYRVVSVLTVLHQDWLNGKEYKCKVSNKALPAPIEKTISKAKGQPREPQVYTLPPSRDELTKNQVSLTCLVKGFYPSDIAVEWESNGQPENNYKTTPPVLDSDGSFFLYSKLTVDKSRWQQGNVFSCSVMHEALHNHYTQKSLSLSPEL
Protocol: as §1, §2

[3] = molecular target: human L-Selectin-IgG-chimera (Homo sapiens, UniProt P14151); test: Sialyl Lewis^x Tyrosine Sulfate Assay (sLe^x TSA), L-selectin; conditions: inhibition of binding of selectin chimera to sLe^x-tyrosine sulfate polyacrylamide ligand complex
human L-Selectin-IgG-chimera, sequence (P14151 with tags, fused parts or gaps limits assumed): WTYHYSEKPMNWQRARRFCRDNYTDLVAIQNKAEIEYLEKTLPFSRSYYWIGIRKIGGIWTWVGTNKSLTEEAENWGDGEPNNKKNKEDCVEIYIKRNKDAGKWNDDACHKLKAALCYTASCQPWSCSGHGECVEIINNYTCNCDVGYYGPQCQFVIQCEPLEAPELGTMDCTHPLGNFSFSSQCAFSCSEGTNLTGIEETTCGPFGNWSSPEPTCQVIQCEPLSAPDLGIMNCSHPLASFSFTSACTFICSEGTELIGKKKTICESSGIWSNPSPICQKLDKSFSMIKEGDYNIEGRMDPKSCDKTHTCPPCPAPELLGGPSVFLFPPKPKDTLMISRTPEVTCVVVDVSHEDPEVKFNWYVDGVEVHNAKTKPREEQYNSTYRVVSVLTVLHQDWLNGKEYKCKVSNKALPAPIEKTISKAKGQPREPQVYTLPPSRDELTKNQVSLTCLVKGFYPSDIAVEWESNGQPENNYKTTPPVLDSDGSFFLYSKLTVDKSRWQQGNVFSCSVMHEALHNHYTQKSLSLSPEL
Protocol: (§3) Compounds of the present invention are assayed on a molecular level for their ability to inhibit the binding of P-, L-, or E-selectin chimeric molecules to sLe^x and tyrosinesulfate residues linked to a polymeric matrix as a PSGL-1 substitute. IC50-values are determined.
(§4) Microtiter plates are coated overnight in carbonate buffer pH9.6 with goat anti human Fc mAB (10 μg/ml). After washing in assay buffer (25 mM 4-(2-hydroxyethyl)-1-piperazineethanesulfonic acid (HEPES), 150 mM NaCl, 1 mM CaCl2 pH7.4) and blocking (3% bovine serum albumin (BSA) in assay buffer) plates are incubated for 2 h at 37° C. with human P-Selectin-IgG-chimera (0.61 nM respectively 150 ng/mL) or human L-Selectin-IgG-chimera (0.61 nM respectively 89 ng/mL) or human E-Selectin-IgG-chimera (0.61 nM respectively 131 ng/mL). 5 μl of sLe^x-tyrosine sulfate polyacrylamide (1 mg/ml) carrying 15% sLe^x, 10% Tyrosine-sulfate and 5% biotin is complexed with 20 μl Streptavidin-Peroxidase solution (1 mg/ml) and 25 μl assay buffer without CaCl2. For use in the assay, the ligand complex is diluted 1:10000 in assay buffer and further diluted 1:1 with varying amounts of compounds in assay buffer incl. 2% DMSO. This mixture is added to the wells precoated with E- or P-selectin. After incubation for 2 h at 37° C., wells are washed for six times with in assay buffer incl. 0.005% Polyoxyethylenesorbitan monolaurate (TWEEN 20), developed for 10-15 min with 20 μl 3,3′,5,5′-tetramethylbenzidine (TMB)/H202 substrate solution and stopped with 20 μl 1 M H2SO4. Bound sLe^x-Tyrosine sulfate ligand complex is determined by measuring optical density at 450 nm vs. 620 nm in a Fusion alpha-FP reader (sold from Packard Bioscience, Dreieich, Germany).

[4] = molecular target: T1, human E-Selectin-IgG-chimera; test: Sialyl Lewis^x Tyrosine Sulfate Assay (sLe^x TSA), E-selectin; conditions: inhibition of binding of selectin chimera to sLe^x-tyrosine sulfate polyacrylamide ligand complex
Protocol: as §3, §4

[5] = molecular target: T2, human P-Selectin-IgG-chimera; test: Sialyl Lewis^x Tyrosine Sulfate Assay (sLe^x TSA), P-selectin; conditions: inhibition of binding of selectin chimera to sLe^x-tyrosine sulfate polyacrylamide ligand complex
Protocol: as §3, §4

T1 sequence (P16581 with tags, fused parts or gaps limits assumed): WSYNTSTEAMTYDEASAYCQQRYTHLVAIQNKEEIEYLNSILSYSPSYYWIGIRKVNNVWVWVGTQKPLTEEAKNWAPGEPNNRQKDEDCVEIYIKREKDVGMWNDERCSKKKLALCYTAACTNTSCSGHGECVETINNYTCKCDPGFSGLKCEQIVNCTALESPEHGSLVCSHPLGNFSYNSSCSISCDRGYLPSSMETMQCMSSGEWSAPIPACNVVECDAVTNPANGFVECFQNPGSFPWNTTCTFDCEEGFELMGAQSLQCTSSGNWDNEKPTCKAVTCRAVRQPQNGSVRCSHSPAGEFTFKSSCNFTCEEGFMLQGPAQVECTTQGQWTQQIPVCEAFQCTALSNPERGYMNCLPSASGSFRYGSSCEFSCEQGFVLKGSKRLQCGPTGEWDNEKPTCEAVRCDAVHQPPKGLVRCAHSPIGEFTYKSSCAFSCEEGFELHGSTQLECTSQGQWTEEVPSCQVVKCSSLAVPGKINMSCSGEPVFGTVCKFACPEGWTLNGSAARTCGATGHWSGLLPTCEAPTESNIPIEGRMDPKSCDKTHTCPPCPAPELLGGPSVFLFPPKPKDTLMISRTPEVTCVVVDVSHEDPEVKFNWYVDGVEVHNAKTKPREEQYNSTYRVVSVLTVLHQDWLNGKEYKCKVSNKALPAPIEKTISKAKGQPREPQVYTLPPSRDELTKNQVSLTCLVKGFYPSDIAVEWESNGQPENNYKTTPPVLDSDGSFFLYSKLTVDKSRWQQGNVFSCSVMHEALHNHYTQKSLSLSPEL

| E-Selectin normalized ratio of %-inhibition of compound divided by %-inhibition of bimosiamose [1] [Ratio] | P-Selectin normalized ratio of %-inhibition of compound divided by %-inhibition of bimosiamose [2] [Ratio] | IC50 [3] [µM] | IC50 [4] [µM] | IC50 [5] [µM] | SMILES |
| --- | --- | --- | --- | --- | --- |
| 1.27 | 1.01 | 383 | > 500 | 107 | COc1ccc(-c2cccc(C(=O)Nc3ccccc3-c3ccc(C(=O)O)s3)c2)c(OC)c1OC [Compound 64] |
| – | – | 385 | > 500 | 186 | COc1ccc(-c2cccc(C(=O)Nc3ccccc3-c3ccc(CC(=O)O)s3)c2)c(OC)c1OC [Compound 61] |
| – | – | 45.3 | 74.7 | 46.4 | CCOC(=O)c1cc(-c2ccc(NC(=O)Cc3ccc(OC)c(OC)c3OC)cc2)oc1C [Compound 62] |
| 1.23 | 2.62 | 59.5 | – | 32.6 | COc1ccc(-c2cccc(C(=O)Nc3ccccc3-c3ccc(Cc4nnn[nH]4)s3)c2)c(OC)c1OC [Compound 87, 2′,3′,4′-Trimethoxy-biphenyl-3-carboxylic acid {2-[5-(1H-tetrazol-5-ylmethyl)-thiophen-2-yl]-phenyl}-amide] |
| – | – | 12.8 | 18.2 | 15 | COc1cc(CCC(=O)Nc2cccc(N)c2)cc(OC)c1OC [Compound 60] |
| – | – | > 500 | – | – | O=C(O)Cc1cccc(-c2cc(CCCCCCc3ccc(O[C@H]4O[C@H](CO)[C@@H](O)[C@H](O)[C@@H]4O)c(-c4cccc(CC(=O)O)c4)c3)ccc2O[C@H]2O[C@H](CO)[C@@H](O)[C@H](O)[C@@H]2O)c1 [Bimosiamose, bimosiamose, reference compound] |
| 1.46 | 1.06 | 76.1 | > 500 | 28.5 | COc1ccc(-c2cc(C(=O)Nc3ccccc3-c3ccc(CC(=O)O)s3)cc([N+](=O)[O-])c2)c(OC)c1OC [Compound 63] |
